# In patent US20140377773A1, “Detection Marker for Anticancer Effects by Selenomethionine as an Inhibitor of Environmental Toxicity” (Dongguk University Industry-Academic Cooperation Foundation, priority 2013, published 2014):
# How the values were obtained:
# CRC = settings: patients who take selenium (Marshall 2008); cited from earlier work
# [1] = test system: PNP (purine nucleoside phosphorylase); assay: Immunohistochemical analysis of colon tissue: PNP; type: in vivo, mouse; settings: immunohistochemistry
# Experimental: (§1) Immunohistochemical analysis of the PHB, PNP, ANXA2 and CRP markers determined in Example 4 for the colon tissue samples obtained from groups 1 to 4 in Example 1 was performed.
# (§2) Specifically, the colon paraffin sections obtained from the mice of groups 1 to 4 in […] were deparaffinized and rehydrated. In addition, endogenous peroxidases were quenched with methanol containing 0.3% H2O2 for 20 minutes. The sections were incubated with the primary antibodies anti-prohibitin (H-80) (sc-28259, Santa Cruz Biotechnology), anti-PNP (sc-135163, Santa Cruz Biotechnology), anti-CRP (H-90) (sc-30047, Santa Cruz Biotechnology), anti-annexin II (H-50) (sc-9061, Santa Cruz Biotechnology) and anti-8-OhdG (MOG-100P, JaICA) at 4° C. overnight. Then, the sections were incubated with biotin-conjugated secondary antibodies corresponding to the primary antibodies for 30 minutes, after which the sections were washed with PBS and incubated with streptavidin horseradish peroxidase (Vector Labs) for 30 minutes. The sections were washed with PBS, and then incubated with a DAB (3,3′-diaminobenzidine) substrate solution containing 1.8×10^−3% (v/v) of H2O2 for 10 minutes. […] The degree of staining of each of the markers in tumor cells developed in the stained tissues of each group was measured according to the method described in “Charafe-Jauffret, E., et al. (2004). […]
# PHB (prohibitin) = assay: Immunohistochemical analysis of colon tissue: PHB; type: in vivo, mouse; settings: immunohistochemistry
# Experimental: as §1, §2
# [2] = test system: AOM-DSS-induced colorectal cancer; assay: Histopathological observation (H & E) of colon tissue of AOM-DSS mice; type: in vivo, mouse; settings: group 4 (SeMet pretreatment + AOM-DSS) compared to group 3 (AOM-DSS alone)
# Experimental: (§3) Each of the colons extracted from the mice in Example 1 was fixed in 10% formalin, and then embedded in paraffin to make FFPE (paraffin-embedded) samples. Each of the FFPE samples was sectioned to a thickness of 10 μm and mounted on micro-slides (MUTO-GLASS, Japan), followed by drying at 37° C. overnight. Then, the paraffin sections were deparaffinized with xylene and concentration gradient alcohol. The deparaffinized tissue sections were stained with hematoxylin and eosin (H & E) (Sigma Aldrich) and an antibody (MOG-100P, JaICA) of 8-OHdG (8-hydroxy-2′-deoxyguanosine) known as an oxidative stress marker.
# AOM-DSS mouse model = type: in vivo; settings: group 4 (15 ppm SeMet pretreatment + AOM-DSS) compared to group 3 (AOM-DSS)
# Experimental: In order to examine the chemopreventive activity of SeMet (selenomethionine) against the development of colorectal cancer, the frequency and size of colon polyps in an inflammation-related colorectal cancer-induced mouse model according to the intake of SeMet (selenomethionine) were examined.
# Specifically, an experiment was performed using forty eight 5-week-old ICR male mice (Lab Animal, Korea) divided into the following groups: group 1: treated with neither SeMet (selenomethionine) nor AOM-DSS; group 2: treated with 15 ppm SeMet (selenomethionine) (Pharma Se Inc, USA); group 3: treated with AOM-DSS; and group 4: pretreated with 15 ppm SeMet (selenomethionine) and then treated with AOM-DSS (FIGS. 1A and 1B).
# AOM (azoxymethane) (Sigma-Aldrich Co, USA) that is a colorectal cancer-inducing substance was injected intraperitoneally (i.p.) into the mice at a dose of 10 mg/kg, and 1.5% (w/v) of dextran sodium sulfate (DSS) (MP Biomedicals, LLC, USA) that is a colitis-inducing substance was allowed to drink for one week after injection of AOM.
# The mice of the four groups were euthanized with CO2 gas when reached 22 weeks of age, and the colons were extracted and observed.
# [3] = test system: AOM-induced premalignant lesions; settings: AOM-DSS mouse models (Baines 2000); cited from earlier work
# ANXA2 (annexin A2) = assay: Immunohistochemical analysis of colon tissue: ANXA2; type: in vivo, mouse
# Experimental: as §1, §2
# colon tissues = assay: 2-DE and nano-HPLC-ESI-QIT-MS proteomics of colon tissue; type: in vivo, mouse; settings: group 4 vs group 3
# Experimental: In order to investigate the molecular target of SeMet (selenomethionine) having chemopreventive activity against colorectal cancer, the colon tissue samples obtained from the mice of groups 1 to 4 in Example 1 were analyzed using a 2-DE (2-dimensional electrophoresis) method.
# Specifically, the colon tissues (excluding polyps) obtained from group 1 treated neither with SeMet (selenomethionine) nor AOM-DSS, group 2 treated with 15 ppm SeMet (selenomethionine) (Pharma Se Inc, USA), group 3 treated with AOM-DSS and group 4 treated with AOM-DSS after pretreatment with 15 ppm SeMet (selenomethionine) were washed with homogenization buffer A (50 mM Tris-HCl (pH7.5), 2 mM EDTA, 150 mM NaCl and 0.5 mM DTT) and then cut to small pieces. The pieces were homogenized in buffer (50 mM Tris-HCl (pH 7.5), 0.25 M sucrose, 5 mM magnesium acetate, 0.2 mM EDTA and 0.5 mM DTT) supplemented with Halt™ protease inhibitor cocktail (Thermo Fisher Scientific, Rockford, Ill.) on ice using a grinding kit (GE Healthcare Life Science, Uppsala, Sweden). Then, the solution was centrifuged at 13,000 rpm at 4° C. for 30 minutes, and 10% trichloroacetic acid was added to the supernatant to precipitate proteins. The collected precipitate was dissolved in rehydration buffer (8 M urea, 2% CHAPS, 50 mM DTT and 0.2% IPG buffer), and then, in order to perform 2D gel electrophoresis, the concentration of the proteins was adjusted with a BCA protein analysis kit (Thermo Fisher Scientific), and 200 μg of each protein was separated with Immobiline Dry Strip (pH 4-7, 18 cm, GE healthcare). 2D separation was performed on 12% acrylamide gel in Ettan Dalt II system (10 mA/gel; 1 hr, 40 mA/gel; >6 hr) (GE Healthcare Life Science, Uppsala, Sweden) for 7 hours. Then, the gel having proteins separated thereon stained using silver staining technology, after which the image of the gel was analyzed using Progenesis SameSpots software (version. 4.1, Nonlinear Dynamics, Newcastle, UK), and spots on the gel were detected. In analysis of the gel image, the gel was automatically aligned by measurement of alignment vectors using an analysis wizard, and master images of the experimental groups were made using Progenesis SameSpots software. The master images were used to normalize and quantify the spot volume and to analyze the proteins showing a difference in expression between the groups.
# In order to investigate the molecular target of SeMet (selenomethionine) having chemopreventive activity against colorectal cancer, the colon tissue samples obtained from groups 1 to 4 in Example 1 were analyzed by mass spectrometry.
# The cut spots were treated with trypsin, and protein identification was performed using a nano LC/MS system composed of a Surveyor HPLC system (Thermo Scientific, Waltham, Mass.) equipped with a nano-ESI source and an electrospray ionization (ESI)-quadrupole ion trap (QIT) mass spectrometer (LCQ Deca XP-Plus, Thermo Finnigan, San Jose, Calif., USA). In order to desalt and concentrate 10 μl of trypsin peptides, the peptide was loaded into a C18 trap column (i.d. 300 μm, length 5 mm, particle size 5 μm; LC Packings, Amsterdam, Netherlands) through an auto sampler at a flow rate of 20 μl/min. Then, the trapped peptides were allowed to flow backward and separated in a C18 reversed-phase capillary column (75 μm silica tube, length 150 mm, particle size 5 μm). The pump flow rate was split 1:100 for a column flow rate of […]. Mobile phase A was a solution of a mixture of 0.5% acetic acid and 0.02% formic acid in water, and mobile phase B was a solution of a mixture of 0.5% acetic acid and 0.02% formic acid in 80% acetonitrile. The samples were injected into the column and eluted by mobile phase B at a concentration gradient of 5-5 20 50 60 80 100% for 0-15-18-50-55-60-62 minutes, respectively. MS and MS/MS spectra were obtained using a capillary tube (temperature: 220° C., ESI voltage: 2.5 kV, and collision energy: 35%). […]
# [4] = test system: 8-OHdG (8-hydroxy-2'-deoxyguanosine); assay: 8-OHdG oxidative stress marker staining of colon tissue; type: in vivo, mouse; settings: group pretreated with SeMet and treated with AOM-DSS compared to group treated with AOM-DSS
# Experimental: as §3
# CRP (C-reactive protein) = assay: Immunohistochemical analysis of colon tissue: CRP; type: in vivo, mouse
# Experimental: as §1, §2
# [5] = administration of SeMet alone (group 2)
# [6] = group 4 (SeMet pretreatment + AOM-DSS) vs AOM-DSS-induced colorectal cancer tissue
# [7] = pretreatment with SeMet + AOM-DSS vs colorectal cancer development, immunohistochemistry
smiles,measurement,setting,value
[Se] [selenium],reduction of the risk of CRC,CRC,about 50%
"C[Se]CC[C@H](N)C(=O)O [SeMet, selenomethionine]",expression of PNP,[1]; [5],increased
same,expression of PNP,[1]; [6],increased again
same,expression of PHB,PHB (prohibitin); [5],increased
same,expression of PHB,PHB (prohibitin); [6],increased again
same,dysplasia and neoplastic lesions,[2],decreases
same,polyps in the colon,AOM-DSS mouse model,significantly decreased
same,development of AOM-induced premalignant lesions,[3],reduces
same,expression of ANXA2,ANXA2 (annexin A2); SeMet administered alone,did not change
same,expression of ANXA2,ANXA2 (annexin A2); [7],decreased
same,Expression in SeMet/AOM-DSS,"colon tissues; Alcohol dehydrogenase (Akr1a4), spot 50",Decreased
same,Expression in SeMet/AOM-DSS,"colon tissues; Aldose reductase (Akr1b3), spot 49",Decreased
same,Expression in SeMet/AOM-DSS,"colon tissues; Annexin 1 (Anxa1), spot 51",Decreased
same,Expression in SeMet/AOM-DSS,"colon tissues; Annexin 2 (Anxa2), spot 48",Decreased
same,Expression in SeMet/AOM-DSS,"colon tissues; Annexin 3 (Anxa3), spot 40",Increased
same,Expression in SeMet/AOM-DSS,"colon tissues; Annexin 7 (Anxa7), spot 57",Increased
same,Expression in SeMet/AOM-DSS,"colon tissues; Beta-actin (Actb), spot 39",Increased
same,Expression in SeMet/AOM-DSS,"colon tissues; C-reactive protein (Crp1), spot 14",Decreased
same,Expression in SeMet/AOM-DSS,"colon tissues; Cofilin 1 (Cfl1), spot 4",Decreased
same,Expression in SeMet/AOM-DSS,"colon tissues; Cofilin 2 (Cfl2), spot 4",Decreased
same,Expression in SeMet/AOM-DSS,"colon tissues; Destrin (Dstn), spot 5",Decreased
same,Expression in SeMet/AOM-DSS,"colon tissues; Eukaryotic translation initiation 5A (Eif5a), spot 10",Increased
same,Expression in SeMet/AOM-DSS,"colon tissues; Glutathione transferase omega 1 (Gsto1), spot 25",Decreased
same,Expression in SeMet/AOM-DSS,"colon tissues; Hypoxanthine-guanine phosphoribosyltransferase 1 (Hprt1), spot 29",Decreased
same,Expression in SeMet/AOM-DSS,"colon tissues; Inorganic pyrophosphatase 1 (Ppa1), spot 38",Increased
same,Expression in SeMet/AOM-DSS,"colon tissues; Isoform 1 of Isocitrate dehydrogenase [NAD] subunit alpha (Idh3a), spot 41",Increased
same,Expression in SeMet/AOM-DSS,"colon tissues; Isoform 1 of Tropomyosin alpha-1 chain (Tpm1), spot 43",Decreased
same,Expression in SeMet/AOM-DSS,"colon tissues; L-lactate dehydrogenase A chain (Ldha), spot 47",Decreased
same,Expression in SeMet/AOM-DSS,"colon tissues; Nucleoside diphosphate kinase B (Nme2), spot 8",Decreased
same,Expression in SeMet/AOM-DSS,"colon tissues; Peroxiredoxin 1 (Prdx1), spot 16, 21",Decreased
same,Expression in SeMet/AOM-DSS,"colon tissues; Peroxiredoxin 4 (Prdx4), spot 16, 21",Decreased
same,Expression in SeMet/AOM-DSS,"colon tissues; Phosphoglycerate mutase 2 (Pgam2), spot 24",Decreased
same,Expression in SeMet/AOM-DSS,"colon tissues; Prohibitin (Phb), spot 34",Increased
same,Expression in SeMet/AOM-DSS,"colon tissues; Proteasome activator complex subunit 1 (Psme1), spot 32",Increased
same,Expression in SeMet/AOM-DSS,"colon tissues; Proteasome subunit beta type 1 precursor (Psmb1), spot 18",Decreased
same,Expression in SeMet/AOM-DSS,"colon tissues; Purine nucleoside phosphorylase (Pnp), spot 33",Increased
same,Expression in SeMet/AOM-DSS,"colon tissues; S-formylglutathione hydrolase (Esd), spot 46",Decreased
same,Expression in SeMet/AOM-DSS,"colon tissues; Transaldolase (Taldo1), spot 52",Decreased
same,Expression in SeMet/AOM-DSS,"colon tissues; Triosephosphate isomerase 1 (Tpi1), spot 19, 23",Decreased
same,Expression in SeMet/AOM-DSS,"colon tissues; Ubiquinol cytochrome c reductase 1 (Uqcrfs1), spot 20",Decreased
same,8-OHdG in colon tissue,[4],decreased
same,expression of CRP,CRP (C-reactive protein); SeMet administered alone,did not change
same,expression of CRP,CRP (C-reactive protein); [7],decreased
